# Assay results from patent US11578055B2, “Triazacyclododecansulfonamide (“TCD”)-based protein secretion inhibitors” (KEZAR LIFE SCIENCES, priority 2018, dated 2023).
# Tests used:
# [1] = system: full length TNFα (amino acids 1-233) fused to Gaussia Luciferase; assay: Dox Induced TNFα-FL-Gluc Assay; type: cell-based; conditions: 24 hr, Dox inducible, 293FRT/TO cells; read-out: 24 hr Dox Inducible TNFaFLGluc 293FRT/TO: Mean IC50
# Procedure, shortened: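 Compounds diluted in DMSO/medium with doxycycline were incubated at 37° C, 5% CO2 with 293 T-REx cells stably carrying a Tet-regulated TNFα(1-233)-Gaussia luciferase construct. Data for structures drawn without stereochemistry refer to stereoisomer mixtures.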
# [2] = system: PD1 signal sequence plus 10 amino acids fused to Gaussia Luciferase (PD1-ss+10aa/Gaussia Luciferase); assay: Dox Induced PD1-ss-Gluc Assay; type: cell-based; conditions: 24 hr, Dox inducible, 293FRT/TO cells; read-out: 24 hr Dox Inducible PD1ssGluc 293FRT/TO: Mean IC50
# Procedure, shortened: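 Compound dilutions in DMSO/media containing doxycycline were applied to a stable, inducible 293 T-REx line carrying the luciferase fusion, then incubated at 37 °C, 5% CO2. Where stereochemistry is not drawn, values relate to isomer mixtures.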
# [3] = In Vitro Microsome Stability Assay (rat); type: in vitro ADME; conditions: rat liver microsomes, 30 min w/ NADPH
# Procedure, shortened: (§1)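 Species liver microsomes in potassium phosphate buffer were preincubated at 37 °C for 3–5 min with test compound (added from 0.25 mM DMSO stock), then started with NADPH. Samples at 0 and 30 min were quenched with acetonitrile containing internal standard and analysed by LC-MS/MS; % remaining at 30 min used analyte/IS AUC ratios relative to t=0.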
# [4] = system: HER3 signal sequence plus 4 amino acids fused to Gaussia Luciferase (HER3-ss+4aa/Gaussia Luciferase); assay: Dox Induced HER3-ss-Gluc Assay; type: cell-based; conditions: 24 hr, doxycycline induced, Flp-In 293 T-REx cells; read-out: 24 hr Dox Inducible Her3(ss + 4) Gluc 293FRT/TO: Mean 1050
# Procedure, shortened: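 Stable Flp-In 293 T-REx line expressing HER3 signal sequence+4aa/Gaussia luciferase under doxycycline-inducible control. Cells plated the day before; compound dilutions added in doxycycline-containing medium and incubated at 37° C, 5% CO2.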
# [5] = system: full length IL-2 (amino acids 1-153) fused to Gaussia Luciferase; assay: Dox Induced IL2-FL-Gluc Assay; type: cell-based; conditions: 24 hr, Dox inducible, 293FRT/TO cells; read-out: 24 hr Dox Inducible IL2FLGluc 293FRT/TO: Mean IC50
# Procedure, shortened: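 Compounds in DMSO/media with doxycycline were added to cells plated the previous day and incubated at 37° C, 5% CO2. Cells: stable Flp-In 293 T-REx line, Dox-regulated expression of IL-2 (aa 1-153) fused at its C-terminus to Gaussia luciferase.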
# [6] = system: multiple myeloma cell line NCl-H929; assay: H929 Cell Viability Assay; type: cell-based, human; conditions: Homo sapiens, NCI-H929, 48 h, H929, Celltiter-Glo
# Procedure, shortened: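 Viability was determined by CellTiter-Glo luminescence after a 48 h, 37 °C exposure of NCI-H929 cells to serial compound dilutions in medium containing 10% FBS. Where stereochemistry is not shown, values refer to a mix of stereoisomers.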
# [7] = system: multiple myeloma cell line U266B1; assay: U266 Cell Viability Assay; type: cell-based, human; conditions: Homo sapiens, U-266; 48 hr, U266, Celltiter-Glo
# Procedure, shortened: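 Viability was measured by CellTiter-Glo luminescence after 48 h compound exposure at 37° C, 5% CO2. The cells were U266B1 multiple myeloma cells grown in RPMI 1640 plus 10% FBS. Where stereochemistry is not shown, values apply to the stereoisomer mixture.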
# [8] = In Vitro Microsome Stability Assay (human); type: in vitro ADME; conditions: human liver microsomes, 30 min w/ NADPH
# Procedure, shortened: as §1
# [9] = In Vitro Microsome Stability Assay (mouse); type: in vitro ADME; conditions: mouse liver microsomes, 30 min w/ NADPH
# Procedure, shortened: as §1
# [10] = In Vitro Microsome Stability Assay (monkey); type: in vitro ADME; conditions: monkey liver microsomes, 30 min w/ NADPH
# Procedure, shortened: as §1
IC50 [1] [µM],IC50 [2] [µM],Liver Microsome Stability-% Left after 30 min w/ NADPH (%) Rat [3] [%],IC50 [4] [µM],IC50 [5] [µM],EC50 [6] [µM],EC50 [7] [µM],Liver Microsome Stability-% Left after 30 min w/ NADPH (%) Human [8] [%],Liver Microsome Stability-% Left after 30 min w/ NADPH (%) Mouse [9] [%],Liver Microsome Stability-% Left after 30 min w/ NADPH (%) Monkey [10] [%],Compound
0.395,0.0174,80.5,0.0382,0.039,0.657,> 25,54.7,84.3,65,"C[C@H]1CN(S(=O)(=O)c2ccc(N(C)C)cc2)CCCN(CC2CCCCC2)CCCN(S(=O)(=O)N2CCN(c3ccc(F)cc3Cl)CC2)C1 [A206, 4-{[(3S)-5-{[4-(2-chloro-4-fluorophenyl)piperazin-1-yl]sulfonyl}-9-(cyclohexylmethyl)-3-methyl-1,5,9-triazacyclododecan-1-yl]sulfonyl}-N,N-dimethylaniline]"
3.25,0.27,0.18,0.4,0.0726,11.3,> 25,0.04,0.5,0.26,"C[C@H]1CN(S(=O)(=O)c2ccc(C(=O)N(C)C)cc2)CCCN(CC2CCCCC2)CCCN(S(=O)(=O)N2CCc3cc(Cl)ccc3C2)C1 [A179, 4-{[(3S)-5-[(6-chloro-1,2,3,4-tetrahydroisoquinolin-2-yl)sulfonyl]-9-(cyclohexylmethyl)-3-methyl-1,5,9-triazacyclododecan-1-yl]sulfonyl}-N,N-dimethylbenzamide]"
0.519,0.0313,10.1,0.0578,0.0805,1.65,> 25,1.77,8.31,1.77,"CN(C)c1ccc(S(=O)(=O)N2CCCN(CC3CCCCC3)CCCN(S(=O)(=O)N3CCc4cc(Cl)ccc4C3)C[C@H]3CC[C@@H]32)cc1 [B22, 4-{[(1S,12R)-10-[(6-chloro-1,2,3,4-tetrahydroisoquinolin-2-yl]sulfonyl]-6-(cyclohexylmethyl)-2,6,10-triazabicyclo[10.2.0]tetradecan-2-yl]sulfonyl}-N,N-dimethylaniline]"
11.2,0.211,63.3,0.382,0.668,> 25,> 25,53.6,58.5,32.8,COc1cc(F)cc(N2CCN(S(=O)(=O)N3CCCN(CC4CCCCC4)CCCN(S(=O)(=O)c4ccc(N(C)C)cc4)CC4(CC4)C3)C[C@H]2C)c1 [A195]
0.434,0.0148,78.7,0.0341,0.0304,0.396,> 25,83.4,80.3,77.9,COc1cc(F)ccc1N1CCN(S(=O)(=O)N2CCCN([C@@H](C)C3CCCCC3)CCCN(S(=O)(=O)c3ccc(N(C)C)cc3)C[C@H](C)C2)CC1 [A203]
0.285,0.0112,83.1,0.0291,0.0279,0.436,> 25,78.1,71.9,73.9,COc1cc(F)cc(N2[C@H](C)CN(S(=O)(=O)N3CCCN(CC4CCCCC4)CCCN(S(=O)(=O)c4ccc(N(C)C)cc4)C[C@H](C)C3)C[C@H]2C)c1 [A200]
7.09,0.118,35.4,0.211,0.283,> 25,> 25,32.8,39.1,26.5,"COc1cccc(N2CCN(S(=O)(=O)N3CCCN(CC4CCCCC4)CCCN(S(=O)(=O)c4ccc(N(C)C)cc4)C[C@H](C)C3)CC2)c1 [A201, 4-{[(3S)-9-(cyclohexylmethyl)-5-{[4-(3-methoxyphenyl)piperazin-1-yl]sulfonyl}-3-methyl-1,5,9-triazacyclododecan-1-yl]sulfonyl}-N,N-dimethylaniline]"
0.221,0.00793,98.8,0.018,0.0106,0.106,> 25,62.7,84.3,63.0,"COc1cc(F)ccc1N1CCN(S(=O)(=O)N2CCCN([C@@H](C)C3CCCCC3)CCCN(S(=O)(=O)c3ccc(N(C)C)cc3)C[C@H](C)C2)C[C@H]1C [A207, 4-{[(3S)-9-[(1 S)-1-cyclohexylethyl]-5-{[(3 R)-4-(4-fluoro-2-methoxyphenyl)-3-methylpiperazin-1-yl]sulfonyl}-3-methyl-1,5,9-triazacyclododecan-1-yl]sulfonyl}-N,N-dimethylaniline]"
> 25,0.343,68.9,0.428,0.616,> 25,> 25,23.3,51.8,37.5,"COc1ccc([C@@H]2CCCN(S(=O)(=O)N3CCCN(CC4CCCCC4)CCCN(S(=O)(=O)c4ccc(N(C)C)cc4)C[C@H](C)C3)C2)cc1 [A208, 4-{[(3S)-9-(cyclohexylmethyl)-5-{[(3S)-3-(4-methoxyphenyl)piperidin-1-yl]sulfonyl]-3-methyl-1,5,9-triazacyclododecan-1-yl]sulfonyl}-N,N-dimethylaniline]"
